A word on the IC50: it is the concentration that inhibits the measured activity by half.

The structures appear in SMILES notation.

Experimental findings from patent US12110276B2 (Genentech, Inc., priority 2021, dated 2024) are described below.

For one assay, the target named is TEAD3 (Homo sapiens (Human), UniProt Q99594). Kind of assay: TR-FRET lipid pocket probe competition assay (Lipid HTRF), TEAD3. Particulars: 4 hours pre-incubation; read-out: Lipid HTRF TEAD3 IC50. It is filed as binding. In general terms: In TR-FRET formats the signal depends on donor and acceptor labels being close together.
Chain of TEAD3 (Q99594 whole entry, species assumed): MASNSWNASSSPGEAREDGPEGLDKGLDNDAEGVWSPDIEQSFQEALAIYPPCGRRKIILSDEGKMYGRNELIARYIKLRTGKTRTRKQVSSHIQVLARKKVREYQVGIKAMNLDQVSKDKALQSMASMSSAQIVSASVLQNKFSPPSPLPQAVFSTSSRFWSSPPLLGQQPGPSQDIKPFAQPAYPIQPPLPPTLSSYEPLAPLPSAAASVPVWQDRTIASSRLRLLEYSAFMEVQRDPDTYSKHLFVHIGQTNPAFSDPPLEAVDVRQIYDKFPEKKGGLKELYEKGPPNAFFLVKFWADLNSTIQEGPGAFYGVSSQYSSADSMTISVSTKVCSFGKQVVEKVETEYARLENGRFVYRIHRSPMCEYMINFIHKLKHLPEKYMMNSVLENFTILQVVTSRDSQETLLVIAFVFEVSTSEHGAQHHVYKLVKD
For a further assay, the target named is TEAD2 (Homo sapiens (Human), UniProt Q15562).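 Note: TR-FRET competition assay with His-tagged TEAD protein and a biotinylated lipid pocket probe, compound pre-incubated 30 min or 4 h at room temperature, displacement lowers signal.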
Chain of TEAD2 (Q15562 whole entry, species assumed): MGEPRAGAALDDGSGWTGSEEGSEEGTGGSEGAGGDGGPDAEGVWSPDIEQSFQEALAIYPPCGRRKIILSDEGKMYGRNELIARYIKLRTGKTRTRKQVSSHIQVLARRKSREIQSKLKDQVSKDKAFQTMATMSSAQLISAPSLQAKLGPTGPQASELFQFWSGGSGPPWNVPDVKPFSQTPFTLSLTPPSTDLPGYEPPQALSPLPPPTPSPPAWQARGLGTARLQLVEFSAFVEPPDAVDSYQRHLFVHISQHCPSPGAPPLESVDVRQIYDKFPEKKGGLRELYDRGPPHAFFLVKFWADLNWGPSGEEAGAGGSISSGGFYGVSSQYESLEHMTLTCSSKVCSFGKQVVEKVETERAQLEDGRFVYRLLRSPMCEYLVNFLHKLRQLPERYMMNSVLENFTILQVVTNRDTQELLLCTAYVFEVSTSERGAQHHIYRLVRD
For another assay, the target named is TEAD4 (Homo sapiens (Human), UniProt Q15561). Kind of assay: TR-FRET lipid pocket probe competition assay (Lipid HTRF), TEAD4.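 Note: His-tagged TEAD4 with biotinylated lipid-pocket probe, read by Europium anti-His and XL665 streptavidin, where probe displacement lowers the TR-FRET signal, IC50 from a four-parameter fit.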 It is filed as binding. As to conditions: 4 hours pre-incubation; read-out: Lipid HTRF TEAD4 IC50.
Chain of TEAD4 (Q15561 whole entry, species assumed): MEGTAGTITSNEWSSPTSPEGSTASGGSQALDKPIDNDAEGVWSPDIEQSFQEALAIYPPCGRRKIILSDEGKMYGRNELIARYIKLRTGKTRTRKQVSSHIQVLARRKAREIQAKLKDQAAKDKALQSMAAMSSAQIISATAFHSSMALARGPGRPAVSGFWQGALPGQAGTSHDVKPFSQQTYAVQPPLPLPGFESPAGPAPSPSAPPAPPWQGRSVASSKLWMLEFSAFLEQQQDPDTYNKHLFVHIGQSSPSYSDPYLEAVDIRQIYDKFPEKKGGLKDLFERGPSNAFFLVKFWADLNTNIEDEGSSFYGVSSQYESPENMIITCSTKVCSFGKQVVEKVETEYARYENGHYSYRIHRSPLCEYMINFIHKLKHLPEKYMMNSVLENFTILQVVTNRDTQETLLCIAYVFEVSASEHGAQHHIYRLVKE
In the next assay the target is TEAD1 (Homo sapiens (Human), UniProt P28347). As to the kind of experiment: TR-FRET lipid pocket probe competition assay (Lipid HTRF), TEAD1.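 Note: His-tagged TEAD1 with biotinylated probe, detected via Europium anti-His and XL665 streptavidin, probe displacement lowers TR-FRET signal, IC50 from four-parameter nonlinear fit.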 The assay is classed as binding. Particulars: 4 hours pre-incubation; read-out: Lipid HTRF TEAD1 IC50.
Chain of TEAD1 (P28347 whole entry, species assumed): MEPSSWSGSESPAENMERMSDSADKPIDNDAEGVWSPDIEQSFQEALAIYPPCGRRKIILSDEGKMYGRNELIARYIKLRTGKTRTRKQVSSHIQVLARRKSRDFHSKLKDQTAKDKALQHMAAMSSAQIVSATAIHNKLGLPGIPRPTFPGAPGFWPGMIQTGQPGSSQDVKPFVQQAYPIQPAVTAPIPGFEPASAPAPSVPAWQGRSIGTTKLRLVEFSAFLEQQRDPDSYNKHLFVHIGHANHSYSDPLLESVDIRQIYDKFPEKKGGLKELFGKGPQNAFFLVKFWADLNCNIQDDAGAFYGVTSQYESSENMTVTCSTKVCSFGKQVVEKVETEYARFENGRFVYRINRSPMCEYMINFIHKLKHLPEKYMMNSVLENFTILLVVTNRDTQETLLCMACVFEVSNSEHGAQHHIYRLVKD

Procedure for TEAD3: His-tagged TEAD proteins are pre-incubated with TEAD project compounds for 30 minutes or 4 hours at room temperature. Biotinylated lipid pocket probes are then added to the TEAD/Compound mixture and incubated for 60 minutes at room temperature. The lipid pocket probe competes with the test compound for the TEAD lipid pocket until equilibrium is reached. After 60 minutes, Europium labelled anti-His (Perkin Elmer #AD0110) and XL665 labelled streptavidin (CIS Bio 610SAXAC) are added to the TEAD/test compound/lipid pocket mixture and incubated for 30 minutes or 4 hours. […] If a TEAD lipid pocket binder such as binds and displaces the lipid pocket probe, the disruption of the TEAD:probe interaction results in a decrease in TR-FRET signal. The potency of compounds as TEAD lipid pocket binders is determined by IC50 value generated using a non-linear 4 parameter curve fit.

Take `C=C(F)C(=O)N1CC(c2nn(-c3ccc(OC(F)(F)F)cc3)c3nccc(N4CC([C@H](O)CO)C4)c23)C1` [Compound 141, (S)-1-(3-(4-(3-(1,2-dihydroxyethyl)azetidin-1-yl)-1-(4-(trifluoromethoxy)phenyl)-1H-pyrazolo[3,4-b]pyridin-3-yl)azetidin-1-yl)-2-fluoroprop-2-en-1-one]: the IC50 was found to be 2000 nM on TEAD3, 54 nM against TEAD2, 6.9 nM on TEAD4 and 27 nM at TEAD1.

For `C=C(F)C(=O)N1CC(c2nn(-c3ccc(OC(F)(F)F)cc3)c3nccc(-c4cnn(CCS(C)(=O)=O)c4)c23)C1` [Compound 179, 2-fluoro-1-(3-(4-(1-(2-(methylsulfonyl)ethyl)-1H-pyrazol-4-yl)-1-(4-(trifluoromethoxy)phenyl)-1H-pyrazolo[3,4-b]pyridin-3-yl)azetidin-1-yl)prop-2-en-1-one], the IC50 at TEAD3 amounted to 50000 nM; against TEAD2, 650 nM; at TEAD4 it was 17 nM; on TEAD1, 32 nM.

For `C=C(F)C(=O)N1CC(c2nn(-c3ccc(OC(F)(F)F)cc3)c3nccc(N4CC[C@@H](O)C4=O)c23)C1` [Compound 125, (R)-1-(3-(1-(2-fluoroacryloyl)azetidin-3-yl)-1-(4-(trifluoromethoxy)phenyl)-1H-pyrazolo[3,4-b]pyridin-4-yl)-3-hydroxypyrrolidin-2-one], the IC50 on TEAD3 was 1700 nM; at TEAD2 it was 870 nM; at TEAD4 it was 44 nM; at TEAD1 it was 800 nM.

Regarding `C=CC(=O)NCc1nn(-c2ccc(OC(F)(F)F)cc2)c2nccc(O[C@H]3C[C@@H](O)C3)c12` [Compound 34, N-((4-(cis-3-Hydroxycyclobutoxy)-1-(4-(trifluoromethoxy)phenyl)-1H-pyrazolo[3,4-b]pyridin-3-yl)methyl)acrylamide], the IC50 at TEAD3 was found to be 50000 nM; at TEAD2 it was 340 nM; on TEAD4, 39 nM; at TEAD1 it was 23 nM.

Regarding `C=CC(=O)NCc1nn(-c2ccc(S(F)(F)(F)(F)F)cc2)c2ncccc12` [Compound 13, N-((1-(4-(pentafluoro-λ^6-sulfanyl)phenyl)-1H-pyrazolo[3,4-b]pyridin-3-yl)methyl)acrylamide], the IC50 at TEAD3 amounted to 230 nM; at TEAD2, 330 nM; at TEAD4, 8.6 nM; on TEAD1 it was 10 nM.

Take `C=CC(=O)NCc1nn(-c2ccc(OC(F)(F)F)cc2)c2nccc(N3CCC(O)CC3)c12` [Compound 91, N-((4-(4-hydroxypiperidin-1-yl)-1-(4-(trifluoromethoxy)phenyl)-1H-pyrazolo[3,4-b]pyridin-3-yl)methyl)acrylamide]: the IC50 at TEAD3 was 41000 nM; against TEAD2, 66 nM; at TEAD4 it was 28.5 nM; at TEAD1 it was 44 nM.

Regarding `C=C(F)C(=O)N1CC(c2nn(-c3ccc(OC(F)(F)F)cc3)c3nccc(-c4cnn(C(C)C)c4)c23)C1` [Compound 178, 2-fluoro-1-(3-(4-(1-isopropyl-1H-pyrazol-4-yl)-1-(4-(trifluoromethoxy)phenyl)-1H-pyrazolo[3,4-b]pyridin-3-yl)azetidin-1-yl)prop-2-en-1-one], the IC50 amounted to 50000 nM on TEAD3, 860 nM against TEAD2, 200 nM at TEAD4 and 87 nM on TEAD1.

`C=C(F)C(=O)NCc1nn(-c2ccc(OC(F)(F)F)cc2)c2nccc([C@H](O)CO)c12` [Compound 155, (S)-N-((4-(1,2-Dihydroxyethyl)-1-(4-(trifluoromethoxy)phenyl)-1H-pyrazolo[3,4-b]pyridin-3-yl)methyl)-2-fluoroacrylamide]: the IC50 on TEAD3 came out at 6900 nM; on TEAD2 it was 350 nM; at TEAD4 it was 160 nM; at TEAD1 it was 320 nM.

In the case of `C=CC(=O)NCc1nn(-c2ccc(OC(F)(F)F)cc2)c2nccc(N3CC(NC(C)=O)C3)c12` [Compound 116, N-((4-(3-acetamidoazetidin-1-yl)-1-(4-(trifluoromethoxy)phenyl)-1H-pyrazolo[3,4-b]pyridin-3-yl)methyl)acrylamide], the IC50 at TEAD3 worked out at 14000 nM; against TEAD2, 75 nM; on TEAD4, 11 nM; on TEAD1, 27 nM.

As for `O=C(/C=C/CO)N1CC(c2nn(-c3ccc(OC(F)(F)F)cc3)c3ccnc(N4CC(O)C4)c23)C1` [Compound 103, (E)-4-hydroxy-1-(3-(4-(3-hydroxyazetidin-1-yl)-1-(4-(trifluoromethoxy)phenyl)-1H-pyrazolo[4,3-c]pyridin-3-yl)azetidin-1-yl)but-2-en-1-one], the IC50 at TEAD3 was determined as 50000 nM; at TEAD2, 3350 nM; at TEAD4, 82.5 nM; on TEAD1 it was 180 nM.

Regarding `O=C(C1=CCCC1)N1CC(c2nn(-c3ccc(OC(F)(F)F)cc3)c3nccc(CO)c23)C1` [Compound 150, Cyclopent-1-en-1-yl(3-(4-(hydroxymethyl)-1-(4-(trifluoromethoxy)phenyl)-1H-pyrazolo[3,4-b]pyridin-3-yl)azetidin-1-yl)methanone], the IC50 on TEAD3 amounted to 50000 nM; at TEAD2, 1200 nM; at TEAD4, 460 nM; at TEAD1, 560 nM.

`C=CC(=O)NCc1nn(-c2ccc(OC(F)(F)F)cc2)c2nccc(N3CC[C@H](O)C3)c12` [Compound 46, (S)-N-((4-(3-hydroxypyrrolidin-1-yl)-1-(4-(trifluoromethoxy)phenyl)-1H-pyrazolo[3,4-b]pyridin-3-yl)methyl)acrylamide]: the IC50 on TEAD3 worked out at 2100 nM; against TEAD2 it was 150 nM; at TEAD4, 13 nM; on TEAD1 it was 50 nM.

Regarding `O=C(/C=C/CO)N1CC(c2nn(-c3ccc(OC(F)(F)F)cc3)c3nccc(Cl)c23)C1` [Compound 127, (E)-1-(3-(4-Chloro-1-(4-(trifluoromethoxy)phenyl)-1H-pyrazolo[3,4-b]pyridin-3-yl)azetidin-1-yl)-4-hydroxybut-2-en-1-one], the IC50 on TEAD3 turned out to be 13 nM; on TEAD2 it was 17 nM; at TEAD4 it was 3.3 nM; at TEAD1, 7.9 nM.

In the case of `C=CC(=O)NCc1nn(-c2ccc(OC(F)(F)F)cc2)c2nccc(NCCO)c12` [Compound 36, N-((4-((2-Hydroxyethyl)amino)-1-(4-(trifluoromethoxy)phenyl)-1H-pyrazolo[3,4-b]pyridin-3-yl)methyl)acrylamide], the IC50 amounted to 500 nM at TEAD3, 120 nM on TEAD2, 5.8 nM at TEAD4 and 9.2 nM at TEAD1.

Consider `O=C(NCc1nn(-c2ccc(OC(F)(F)F)cc2)c2nccc([C@H](O)CO)c12)C1=CCC1` [Compound 156, (S)-N-((4-(1,2-Dihydroxyethyl)-1-(4-(trifluoromethoxy)phenyl)-1H-pyrazolo[3,4-b]pyridin-3-yl)methyl)cyclobut-1-enecarboxamide], for which the IC50 was determined as 740 nM at TEAD3, 25 nM against TEAD2, 7.8 nM at TEAD4 and 33 nM on TEAD1.

As for `O=C(/C=C/CO)N1CC(c2nn(-c3ccc(OC(F)(F)F)cc3)c3nccc(-c4cn[nH]c4)c23)C1` [Compound 50, (E)-1-(3-(4-(1H-Pyrazol-4-yl)-1-(4-(trifluoromethoxy)phenyl)-1H-pyrazolo[3,4-b]pyridin-3-yl)azetidin-1-yl)-4-hydroxybut-2-en-1-one], the IC50 on TEAD3 is 200 nM; at TEAD2, 75 nM; at TEAD4, 9.5 nM; at TEAD1, 24 nM.

`C=CC(=O)NCc1nn(-c2ccc(OC(F)(F)F)cc2)c2nccc([C@@H](C)O)c12` [Compound 62, (R)-N-((4-(1-Hydroxyethyl)-1-(4-(trifluoromethoxy)phenyl)-1H-pyrazolo[3,4-b]pyridin-3-yl)methyl)acrylamide]: the concentration for half-maximal inhibition (IC50) is 860 nM at TEAD3, 71 nM on TEAD2, 13 nM at TEAD4 and 58 nM at TEAD1.

As for `C=C(F)C(=O)N1CC(c2nn(-c3ccc(OC(F)(F)F)cc3)c3ccnc(N4CC(O)C4)c23)C1` [Compound 78, 2-fluoro-1-(3-(4-(3-hydroxyazetidin-1-yl)-1-(4-(trifluoromethoxy)phenyl)-1H-pyrazolo[4,3-c]pyridin-3-yl)azetidin-1-yl)prop-2-en-1-one], the half-maximal inhibitory concentration (IC50) was found to be 13000 nM at TEAD3, 2800 nM against TEAD2, 150 nM on TEAD4 and 180 nM on TEAD1.

In the case of `C=CC(=O)NCc1nn(-c2ccc(OC(F)(F)F)cc2)c2cccc(C#N)c12` [Compound 186, N-((4-cyano-1-(4-(trifluoromethoxy)phenyl)-1H-indazol-3-yl)methyl)acrylamide], the IC50 is 255 nM on TEAD3, 430 nM against TEAD2, 52.5 nM on TEAD4 and 270 nM on TEAD1.

For the compound `C=CC(=O)NCc1nn(-c2ccc(OC(F)(F)F)cc2)c2nccc(-c3c[nH]cn3)c12` [Compound 119, N-((4-(1H-Imidazol-4-yl)-1-(4-(trifluoromethoxy)phenyl)-1H-pyrazolo[3,4-b]pyridin-3-yl)methyl)acrylamide], the IC50 at TEAD3 stood at 550 nM; on TEAD2, 250 nM; on TEAD4, 110 nM; at TEAD1, 160 nM.

Regarding `O=C(C1=CCOC1)N1CC(c2nn(-c3ccc(OC(F)(F)F)cc3)c3nccc(CO)c23)C1` [Compound 152, (2,5-Dihydrofuran-3-yl)(3-(4-(hydroxymethyl)-1-(4-(trifluoromethoxy)phenyl)-1H-pyrazolo[3,4-b]pyridin-3-yl)azetidin-1-yl)methanone], the IC50 at TEAD3 worked out at 1200 nM; on TEAD2, 810 nM; on TEAD4, 140 nM; at TEAD1, 220 nM.
